# Earlier results in patent US20240398817A1, “CARDIO- AND RENOSAFE ANTIDIABETIC THERAPY” (priority 2018, published 2024).
# Where two headings read alike, the source gives them in different places.
# Assays:
# Conditions in all cases: in vivo; cited from earlier work
# [1] = system: people with type 2 diabetes
# [2] = system: people with type 2 diabetes; remark: listed apart in the source
# [3] = system: people with type 2 diabetes; remark: listed apart in the source
compound,measurement,setting,value
Cn1c(=O)cc(N2CCC[C@@H](N)C2)n(Cc2ccccc2C#N)c1=O [alogliptin],"Incidence of hospitalization for heart failure versus placebo, in words",[1],numerically increased
same,"Major adverse CV events compared with placebo, in words",[1],neutral effects
N#C[C@@H]1C[C@@H]2C[C@@H]2N1C(=O)[C@@H](N)C12CC3CC(CC(O)(C3)C1)C2 [saxagliptin],"Major adverse CV events compared with placebo, in words",[2],neutral effects
N[C@@H](CC(=O)N1CCn2c(nnc2C(F)(F)F)C1)Cc1cc(F)c(F)cc1F [sitagliptin],"Incidence of heart failure hospitalization versus placebo, in words",[3],no effect
same,"Major adverse CV events compared with placebo, in words",[3],neutral effects
